≈ marks a conversion by molar mass, not a printed value. No end group written: not given here.
Experiments:
[1] = system: Pseudomonas aeruginosa ATCC 27853; test: Antimicrobial assay I, modified protocol (tryptic soy broth), MBC; settings: minimum bactericidal concentration, Table 4
[2] = system: Escherichia coli ATCC 25922; test: as above; settings: minimum bactericidal concentration, Table 4
[3] = system: Candida albicans ATCC 10231; test: Antimicrobial assay I, modified protocol (tryptic soy broth), MFC; settings: minimum fungicidal concentration, Table 4
[4] = system: Stapholococcus aureus ATCC 25923; test: Antimicrobial assay I, modified protocol (tryptic soy broth), MBC; settings: minimum bactericidal concentration, Table 4

CC(C)C[C@H](NC(=O)[C@H](CC(C)C)NC(=O)[C@H](C)NC(=O)[C@H](CCCCN)NC(=O)[C@H](C)NC(=O)[C@H](CC(C)C)NC(=O)[C@H](CCCCN)NC(=O)[C@H](CCCCN)NC(=O)[C@H](C)NC(=O)[C@@H](N)Cc1ccccc1)C(N)=O [compound 58]
MBC P. aerug A.27853 [1]: >50 µg/mL | MBC E. coli A.25922 [2]: >50 µg/mL | MFC Candida A.10231 [3]: >50 µg/mL | MBC S. aur A.25923 [4]: >50 µg/mL

CC(C)C[C@H](NC(=O)[C@H](CCCCN)NC(=O)[C@H](CCCCN)NC(=O)[C@H](Cc1c[nH]c2ccccc12)NC(=O)[C@@H](N)CCCCN)C(N)=O [compound 173]
MBC P. aerug A.27853 [1]: >250 µg/mL | MBC E. coli A.25922 [2]: >250 µg/mL | MFC Candida A.10231 [3]: 150 µg/mL (≈ 214 µM) | MBC S. aur A.25923 [4]: >250 µg/mL

CC(C)C[C@H](NC(=O)[C@H](C)NC(=O)[C@@H](N)Cc1ccccc1)C(=O)N[C@@H](C)C(=O)N[C@@H](CC(C)C)C(=O)N[C@@H](CCCCN)C(=O)N[C@@H](C)C(=O)N[C@@H](CC(C)C)C(=O)N[C@@H](CCCCN)C(=O)N[C@@H](CCCCN)C(N)=O [compound 169]
MBC P. aerug A.27853 [1]: >250 µg/mL | MBC E. coli A.25922 [2]: 200 µg/mL (≈ 182 µM) | MFC Candida A.10231 [3]: 75 µg/mL (≈ 68.1 µM) | MBC S. aur A.25923 [4]: >250 µg/mL

CC[C@H](C)[C@H](NC(=O)[C@H](C)NC(=O)[C@H](CCCNC(=N)N)NC(=O)[C@H](CC(C)C)NC(=O)CNC(=O)[C@@H](NC(=O)[C@H](C)NC(=O)[C@@H](N)Cc1ccccc1)C(C)C)C(=O)N[C@@H](CCCCN)C(=O)N[C@@H](CCCNC(=N)N)C(=O)N[C@@H](C)C(=O)N[C@@H](CC(C)C)C(=O)N[C@@H](CCCCN)C(=O)N[C@@H](CCCCN)C(=O)N[C@@H](CC(C)C)C(=O)N[C@@H](CCCNC(=N)N)C(=O)N[C@@H](CCCNC(=N)N)C(=O)NCC(=O)N[C@H](C(=O)N[C@@H](CCCNC(=N)N)C(=O)N[C@@H](CCCCN)C(=O)N[C@H](C(=O)N[C@@H](C)C(=O)N[C@@H](CCCCN)C(=O)N[C@@H](CC(=O)O)C(=O)N[C@@H](CC(C)C)C(N)=O)C(C)C)C(C)C [compound 157]
MBC P. aerug A.27853 [1]: >250 µg/mL | MBC E. coli A.25922 [2]: 75 µg/mL (≈ 25.3 µM) | MFC Candida A.10231 [3]: >250 µg/mL | MBC S. aur A.25923 [4]: >250 µg/mL

CC(C)C[C@H](NC(=O)[C@H](CCCCN)NC(=O)[C@H](CC(C)C)NC(=O)[C@H](CCCCN)NC(=O)[C@H](C)NC(=O)[C@H](CC(C)C)NC(=O)[C@H](CCCCN)NC(=O)[C@H](C)NC(=O)[C@H](CC(C)C)NC(=O)[C@H](CC(C)C)NC(=O)[C@H](CCCCN)NC(=O)[C@H](C)NC(=O)[C@@H](N)Cc1ccccc1)C(N)=O [compound 66]
MBC P. aerug A.27853 [1]: 50 µg/mL (≈ 34.3 µM) | MBC E. coli A.25922 [2]: 40 µg/mL (≈ 27.5 µM) | MFC Candida A.10231 [3]: 40 µg/mL (≈ 27.5 µM) | MBC S. aur A.25923 [4]: 30 µg/mL (≈ 20.6 µM)

CC(C)C[C@H](NC(=O)[C@H](C)NC(=O)[C@H](CCCCN)NC(=O)[C@H](CCCCN)NC(=O)[C@H](CC(C)C)NC(=O)[C@H](C)NC(=O)[C@H](CCCCN)NC(=O)[C@H](C)NC(=O)[C@H](CC(C)C)NC(=O)[C@H](C)NC(=O)[C@@H](N)Cc1ccccc1)C(N)=O [compound 166]
MBC P. aerug A.27853 [1]: >250 µg/mL | MBC E. coli A.25922 [2]: >250 µg/mL | MFC Candida A.10231 [3]: >250 µg/mL | MBC S. aur A.25923 [4]: >250 µg/mL

CC(C)C[C@H](NC(=O)[C@H](CCCCN)NC(=O)[C@H](Cc1c[nH]c2ccccc12)NC(=O)[C@H](CCCCN)NC(=O)[C@H](CCCCN)NC(=O)[C@H](C)NC(=O)[C@H](CC(C)C)NC(=O)[C@H](CCCCN)NC(=O)[C@H](CCCCN)NC(=O)[C@H](C)NC(=O)[C@H](CC(C)C)NC(=O)[C@H](CCCCN)NC(=O)[C@H](CCCCN)NC(=O)[C@H](CC(C)C)NC(=O)[C@H](CCCCN)NC(=O)[C@H](CCCCN)NC(=O)[C@H](C)NC(=O)[C@H](CC(C)C)NC(=O)[C@H](CCCCN)NC(=O)[C@H](CCCCN)NC(=O)[C@H](C)NC(=O)[C@@H](N)Cc1ccccc1)C(=O)O [compound 72]
MBC P. aerug A.27853 [1]: 40 µg/mL (≈ 15.3 µM) | MBC E. coli A.25922 [2]: >50 µg/mL | MFC Candida A.10231 [3]: >50 µg/mL | MBC S. aur A.25923 [4]: >50 µg/mL

FAKLF-NH2 [compound 129]
MBC P. aerug A.27853 [1]: INACT | MBC E. coli A.25922 [2]: INACT | MFC Candida A.10231 [3]: INACT | MBC S. aur A.25923 [4]: INACT

CC(C)C[C@H](NC(=O)[C@H](C)NC(=O)[C@H](CCCCN)NC(=O)[C@H](CCCCN)NC(=O)[C@H](C)NC(=O)[C@H](CC(C)C)NC(=O)[C@H](CCCCN)NC(=O)[C@H](C)NC(=O)[C@H](CC(C)C)NC(=O)[C@H](CC(C)C)NC(=O)[C@H](CCCCN)NC(=O)[C@H](C)NC(=O)[C@@H](N)Cc1ccccc1)C(N)=O [compound 54]
MBC P. aerug A.27853 [1]: 40 µg/mL (≈ 28.3 µM) | MBC E. coli A.25922 [2]: 15 µg/mL (≈ 10.6 µM) | MFC Candida A.10231 [3]: 30 µg/mL (≈ 21.2 µM) | MBC S. aur A.25923 [4]: 15 µg/mL (≈ 10.6 µM)

KWKLAKKALALL-NH2 [compound 142]
MBC P. aerug A.27853 [1]: INACT | MBC E. coli A.25922 [2]: INACT | MFC Candida A.10231 [3]: INACT | MBC S. aur A.25923 [4]: INACT

CC(C)C[C@H](NC(=O)[C@H](CCCCN)NC(=O)[C@H](CCCCN)NC(=O)[C@H](C)NC(=O)[C@H](CC(C)C)NC(=O)[C@H](CCCCN)NC(=O)[C@H](CCCCN)NC(=O)[C@H](CC(C)C)NC(=O)[C@H](CCCCN)NC(=O)[C@H](CCCCN)NC(=O)[C@H](C)NC(=O)[C@@H](N)Cc1ccccc1)C(N)=O [compound 79]
MBC P. aerug A.27853 [1]: >50 µg/mL | MBC E. coli A.25922 [2]: >50 µg/mL | MFC Candida A.10231 [3]: >50 µg/mL | MBC S. aur A.25923 [4]: >50 µg/mL

FGKGIGKVGKKLL-NH2 [compound 132]
MBC P. aerug A.27853 [1]: INACT | MBC E. coli A.25922 [2]: INACT | MFC Candida A.10231 [3]: INACT | MBC S. aur A.25923 [4]: INACT

CC(C)C[C@H](NC(=O)[C@H](CCCCN)NC(=O)[C@H](CCCCN)NC(=O)[C@H](C)NC(=O)[C@H](CC(C)C)NC(=O)[C@H](CCCCN)NC(=O)[C@H](C)NC(=O)[C@H](CC(C)C)NC(=O)[C@H](CC(C)C)NC(=O)[C@H](CCCCN)NC(=O)[C@H](C)NC(=O)[C@@H](N)Cc1ccccc1)C(N)=O [compound 49]
MBC P. aerug A.27853 [1]: 30 µg/mL (≈ 22.3 µM) | MBC E. coli A.25922 [2]: 40 µg/mL (≈ 29.8 µM) | MFC Candida A.10231 [3]: 30 µg/mL (≈ 22.3 µM) | MBC S. aur A.25923 [4]: 50 µg/mL (≈ 37.2 µM)

FAKLLAKLAKKSL-NH2 [compound 127]
MBC P. aerug A.27853 [1]: INACT | MBC E. coli A.25922 [2]: INACT | MFC Candida A.10231 [3]: INACT | MBC S. aur A.25923 [4]: INACT

KAKLF-NH2 [compound 130]
MBC P. aerug A.27853 [1]: INACT | MBC E. coli A.25922 [2]: INACT | MFC Candida A.10231 [3]: INACT | MBC S. aur A.25923 [4]: INACT

CC(C)C[C@H](NC(=O)[C@H](C)NC(=O)[C@H](CC(C)C)NC(=O)[C@H](C)NC(=O)[C@H](CC(C)C)NC(=O)[C@H](CCCCN)NC(=O)[C@H](C)NC(=O)[C@H](CC(C)C)NC(=O)[C@H](CCCCN)NC(=O)[C@H](CCCCN)NC(=O)[C@H](CC(C)C)NC(=O)[C@H](CCCCN)NC(=O)[C@H](CCCCN)NC(=O)[C@H](C)NC(=O)[C@H](CC(C)C)NC(=O)[C@H](CCCCN)NC(=O)[C@H](CCCCN)NC(=O)[C@H](C)NC(=O)[C@@H](N)Cc1ccccc1)C(=O)O [27C]
MBC P. aerug A.27853 [1]: 4 µg/mL (≈ 1.91 µM) | MBC E. coli A.25922 [2]: 10 µg/mL (≈ 4.77 µM) | MFC Candida A.10231 [3]: >40 µg/mL | MBC S. aur A.25923 [4]: >40 µg/mL

From patent US20050209157A1, “Short bioactive peptides and methods for their use” (priority 2001, published 2005)
